Results from a melting point compilation (Tetko et al.; mined from patent text by program, amines drawn as free bases though some values may be those of a salt).

melting point | SMILES
91 °C | Cn1cc(-c2cc(-c3cnc4[nH]ccc4c3)ccn2)n(-c2ccc(C(C)(C)CN)cc2)c1=O
60 to 62 °C | CN(C)Cc1ccccc1-c1ccc(Br)cc1
111 to 119 °C | CN1CCN(c2cc(Cl)cc3c2c(=O)n(-c2ccccc2)c(=O)n3Cc2ccccc2)CC1
105 °C | CCCCc1nc(SC)c(C(=O)OCC)n1Cc1ccccc1-c1ccccc1S(=O)(=O)NC#N
156 to 158 °C | CC(Oc1ccc(COc2ccc(Cl)cc2)cc1)C(=O)O (configuration not stated)
84 to 92 °C | CC(C)(NC(=O)OCc1ccccc1)C(=O)NCCCc1ccccc1
181 to 184 °C | O=c1[nH]c2c(OC3CNC3)cccc2n1Cc1ccccc1
106 to 107 °C | CCNC(=O)C(C)NS(=O)(=O)c1ccc(C)cc1 (racemic)
242 to 246 °C | Cc1cc(C)c(N2c3ccccc3S(=O)(=O)c3ccccc32)c(C)c1
231 to 233 °C | CC(C)(C)OC(=O)N1CCN(C(=O)OC(C)(C)C)C(C(=O)O)C1 (configuration not stated)
219 to 221 °C | O=C(NN1CCOCC1)OCCOc1ccc(OCCOC(=O)NN2CCOCC2)cc1
220 to 222 °C | O=C(Nc1cccc(-c2ccnc3c(C(=O)c4ccco4)cnn23)c1)c1ccccc1
90 to 93 °C | C=COC(=O)[C@H](Cc1ccccc1)NC(C)=O
> 300 °C | CNC(=O)c1cccc(Nc2ncnc3[nH]cc(C(=O)c4cccc(F)c4)c23)c1
311 to 312 °C | N#Cc1ccc(-c2cccc(-c3nc4ccc(C#N)cc4[nH]3)n2)cc1
170 °C | COC(=O)/C=C/n1cnc2ccc(SC)cc2c1=O
151 to 153 °C | CC(C)(C)c1cc(C2=NOC(CCOc3ccc([N+](=O)[O-])cc3)C2)cc(C(C)(C)C)c1O (configuration not stated)
117 to 120 °C | CCCCCCCCCCCCC(Oc1ccc(NS(=O)(=O)CCCC)cc1)C(=O)Nc1c(C)cc(C)c(-c2n[nH]c3cc(C(C)(C)C)nn23)c1C (configuration not stated)
211 to 217 °C | COc1ccc(/C=C/C(=O)Nc2ccccc2C(=O)O)cc1OC1CCCC1
83 to 84 °C | O=C(O)CCCC(=O)NCc1ccccc1
264 to 266 °C | CCC(=O)Nc1c(C(=O)c2cc(Cl)ccc2NC(C)=O)[nH]c2cc(Cl)ccc12
90 to 92 °C | CC(C)COC(=O)COC(=O)CON1CC(NC(=O)OCc2ccccc2)C1=O (configuration not stated)
202 to 203 °C | Nc1ccc2c(c1)ncn2-c1ccccc1O
48 to 52 °C | O=C(Nc1ccccn1)C(CC1CCCC1)c1ccc(Cl)c([N+](=O)[O-])c1 (configuration not stated)

melting point | SMILES
68 to 70 °C | CC1(C)OC(C=Cc2cccnc2)=CC1=O
99 to 101 °C | Cc1ccc(S(=O)(=O)C#CBr)cc1
172 to 174 °C | CC(=O)NNc1ccc(N=Cc2ccccc2)cc1
154 to 156 °C | ON=C(c1ccccc1)c1ccc(OCCCCOc2ccc(C(=NO)c3ccccc3)cc2)cc1
78 to 80 °C | CCCCCCCCCCCCCCCCCCc1c(C(=O)OCC)[nH]c(C)c1C
158 to 159 °C | Cc1nc(Cc2ccccc2)c(CO)c(CO)c1O
92 to 92.5 °C | CCOC(=O)/C=C/c1ccc(OCCOC)c(C)c1OCc1ccc(Cl)cc1Cl
171 to 174 °C | CC(O)C(C)Sc1sc(-c2cc[nH]n2)c2c1C(=O)CC(C)(C)C2 (configuration not stated)
238 to 240 °C | CC(=O)NC[C@H]1CN(c2ccc(N3CCC(O)(C(N)=O)CC3)c(F)c2)C(=O)O1
86 to 87 °C | CN1CCC=C(c2nnn(C)n2)C1
193 to 200 °C | CN1CCC2(CC1)OC(c1ccccc1)c1cc(O)ccc12 (configuration not stated)
32 to 34 °C | C#CCOc1ccc(C)nc1
118 to 120 °C | CO/N=C(/C(=O)O)c1ccc(OCCOc2ccc3ccccc3c2)s1
167 to 169 °C | O=C1C(=O)N(C(c2ccccc2)c2ccccc2)c2cc(F)ccc21
293 to 295 °C | CC(=O)Nc1ccc(C(=O)Nc2c(C)cccc2C)cc1
106 to 107 °C | ClC1(Cl)C(c2ccccc2)C1(c1ccccc1)c1ccccc1 (configuration not stated)
179 to 180 °C | CCc1c(Oc2cc(C)cc(C)c2)n(CC2CC=CC2)c(=O)[nH]c1=O
169 to 173 °C | C=S1c2ccccc2N(CCN2CCOCC2)C(=O)C1c1ccc(Cl)cc1 (configuration not stated)
45 to 48 °C | COCCOc1nc(C)nc(N2CCC(c3ccc(F)cc3)CC2)c1[N+](=O)[O-]
176 to 178 °C | CS(=O)(=O)Nc1ccc(C(N)=O)cc1Sc1ccc(F)cc1F
180 to 182 °C | N#Cc1nc(Cl)c(Cl)nc1C#N
144 to 145 °C | COC(=O)C1CCN2C(=O)C(=O)c3cc([N+](=O)[O-])cc1c32 (configuration not stated)
98 to 100 °C | CC(C)OC(=O)C=Cc1cc(N)ccc1Cl
26.5 to 27 °C | C=C(C#N)CCC(=O)O

melting point | SMILES
207 to 208 °C | COC(=O)c1sccc1Nc1ccc(Cl)cc1[N+](=O)[O-]
114 °C | CC(C)C(O)(c1ccccc1)c1cc(Cl)ccc1O (configuration not stated)
191 to 198 °C | CN(C)CC/C=C/c1ccc2c(Nc3ccc(Sc4nccn4C)c(Cl)c3)c(C#N)cnc2c1
110 to 115 °C | CCN1CCCC1CNC(=O)c1cc(S(N)(=O)=O)c(OC)c2c1OCCO2 (configuration not stated)
89 to 90 °C | c1ccc(N2CCOCC2)c(N=C2CCCCN2)c1
62 °C | O=c1[nH]c2ccc(Cl)cc2n1CC1CCCCC1
108 to 110 °C | CCOCc1nc2c(N)nc(C)c(C)c2n1NC1CCCCC1
284 to 286 °C | COc1ccc2nc3c(c(-c4ccc(F)cc4)c2c1)CNC3=O
298 °C | CC1(C)OC(=C(C#N)C#N)C(C#N)=C1c1ccc(-c2cn(-c3ccccc3)nn2)cc1
105 to 107 °C | COc1cccc(O[C@@H]2COc3ccc(OCc4ccccn4)cc3[C@@H]2O)c1 (relative stereo)
207 to 208 °C | CCOc1cc(S(=O)(=O)CC)ccc1-c1nc2ncccc2[nH]1
173 to 174 °C | CCOC(=O)N1C=CC(c2c(-c3ccccc3)nn3ccccc23)C=N1 (configuration not stated)
167 to 172 °C | COc1ccc2cc(-c3ccnc(N(C)C)n3)cc(NC3CCN(c4ncnc5[nH]nc(Br)c45)CC3)c2c1
65 to 66 °C | COC(=O)C(C)(O[Si](C)(C)C(C)(C)C)c1ccc([N+](=O)[O-])cc1 (configuration not stated)
89 to 91 °C | COc1ccc(S(=O)O)c(OC)c1
> 210 °C | CCCCCCCCCCOc1ccc2c(=O)c3cccc(C(=O)O)c3oc2c1CCC(=O)O
245 to 246 °C | Cc1cc(C#N)cnc1Oc1c(Cl)cc(NC(=O)NC(=O)c2c(Cl)cccc2Cl)cc1Cl
207 to 213 °C | O=c1c2ccccc2sc2cccc(Oc3cc(Cl)cc(Cl)c3)c12
175 to 176 °C | CC(=O)c1ccc(Nc2cccc(-c3cccnc3)c2)c(N)c1
91 to 93 °C | CC(C=CC1=C(C)C(=O)CC1(C)C)=CC=O
170 to 173 °C | Cc1sc2nc(C=O)c(C)c(=O)n2c1C
73 to 75 °C | O=C1C(=Cc2cccc(OCCCCl)c2)Cc2ccccc21
146 to 148 °C | O=C(OC1CCCCC1C(C[N+](=O)[O-])c1ccc(Cl)cc1)c1ccc([N+](=O)[O-])cc1 (mixture of isomers)
131 to 133 °C | Nc1c([N+](=O)[O-])cc(Br)c2c1CCN(Cc1ccc(C(F)(F)F)cc1)C2

melting point | SMILES
194 to 196 °C | CCOC(=O)c1cc2c(o1)CNCC2(O)c1ccc(C)cc1 (configuration not stated)
99 to 101 °C | CSC(SC)=C(C#N)S(=O)(=O)c1ccccc1
133 to 134 °C | COc1ccc(C2(c3ccc(OC)c(OC)c3)CCC(=O)O2)cc1OC
252 °C | NC(=O)CON=c1c2nccc3cccc(c32)n2cccc12
122 to 125 °C | CCOC(=O)N1CCCC2(OCCO2)C1Cc1c[nH]c2ccccc12 (configuration not stated)
150 to 152 °C | Cc1cc(NC(=O)N(C)C)no1
138 to 140 °C | CCOC(=O)c1c(C(=O)OCC)c(-c2ccc(OC)c(OC)c2)c2c(OC)c(OC)c(OC)cc2c1O
51 to 53 °C | CCCCCCCC(=O)c1c(C(=O)CCCCCCC)c(-c2ccccc2)n(-c2ccc(C)cc2)c1-c1ccccc1
220 to 226 °C | NC(=O)CN1C(=O)COc2cc(F)c([N+](=O)[O-])cc21
241 to 243 °C | NC(=O)c1cc(-c2nccs2)[nH]c1C(CC1CCOCC1)c1ccc(S(=O)(=O)C2CC2)cc1 (configuration not stated)
170 to 172 °C | COc1ccc(-c2cnc3cc(OC)c(OC)cc3c2)cn1
170 to 172 °C | O=C(c1ccc(Nc2ccncc2)cc1)N1CCCCC1
63 to 64 °C | CS(=O)(=O)c1cccc(Br)c1
255 to 257 °C | Cn1cnc2c1c1nnc(-c3ccccc3)n1c(=O)n2Cc1ccccc1
163 to 164 °C | COCCOCc1c(CN(C)CC(O)c2ccc(C#N)s2)sc2c(=O)c(C(=O)NCc3ccc(Cl)cc3)cn(C)c12 (configuration not stated)
111 to 113 °C | C=CCCc1cccc2c1C(=O)C1=C(CCCC1)C2=O
229 to 230 °C | COC(=O)NNC(=O)c1ccc(O)cc1
145 °C | COc1ccccc1C(=O)c1c(SC)oc2ccccc2c1=O
131 to 135 °C | Nc1c(F)cc(Cl)cc1C(O)(C#CC1CC1)C(F)(F)F (configuration not stated)
118 to 120 °C | CCOC(=O)C1=C(C)NC(c2cscn2)=NC1c1cccc(F)c1 (configuration not stated)
231 to 233 °C | O=C1CCCc2[nH]c3cc(F)ccc3c21
200 to 201 °C | C=C1C(O)CC(OC(C)=O)C2(C)C1CC1(C(C)(C)O)CC(O)C(C)=C1C(OC(=O)c1ccccc1)C2OC(C)=O (configuration not stated)
100 to 102 °C | CCCCCCCCCCCCCCCCSCC(CNS(=O)(=O)CCCCl)NC(=O)OC(C)(C)C (configuration not stated)
> 360 °C | Cc1cc2c(cc1C)=NC(=O)N=2

SMILES | melting point
CN1Cc2c(-c3nc(CCl)cs3)ncn2-c2cccc(Cl)c2C1=O | 277 to 279 °C
CCOC1Nc2c(ccc(OC)c2O)C(=O)N2CCCC12 (configuration not stated) | 155 to 158 °C
CN1C(=O)C(C(=O)Nc2ccc(OC(F)(F)F)c(Cl)c2)C(=O)N(C)C1=O | 160 °C
N#Cc1ccc(N2CCC(CO)CC2)c2ccccc12 | 135 to 136 °C
O=C(OC1CCCCC1)c1ncn2c1[C@@H]1CCCN1C(=O)c1c(Cl)cccc1-2 | 166 to 167 °C
CN(C)C1(c2ccccc2)CCC2(NCCc3c2[nH]c2ccccc32)C(Sc2ccccc2)C1 (configuration not stated) | 171 to 173 °C
